Common to all, as to assay: relative viability (nuclei count vs DMSO), 5 days (fraction); higher = more cells survive
Compound in the assay “Sulindac + Pictilisib”: CC1=C(CC(=O)O)c2cc(F)ccc2/C1=C\c1ccc([S+](C)[O-])cc1 [Sulindac] + CS(=O)(=O)N1CCN(Cc2cc3nc(-c4cccc5[nH]ncc45)nc(N4CCOCC4)c3s2)CC1 [Pictilisib] (partner 1 µM)
In short, it runs like this:
(§1)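 For relative viability, nuclei counts in treated wells were divided by those in vehicle wells. Lung cancer cell lines had been pin-tool dosed in 1536-well plates the day after seeding and cultured for 5 days, then fixed and stained in one step (final 0.05% Triton X-100, 1% formaldehyde, 1 ug/ml Hoechst) and imaged at 4×. Doses were one drug alone or a fixed anchor-drug dose plus five library-drug doses (not always all listed) in √10 steps, and values are duplicate-plate medians.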

Compound in the assay “Sulindac + Decitabine”: CC1=C(CC(=O)O)c2cc(F)ccc2/C1=C\c1ccc([S+](C)[O-])cc1 [Sulindac] + Nc1ncn([C@H]2C[C@H](O)[C@@H](CO)O2)c(=O)n1 [Decitabine] (partner 2 µM)
A digest of the protocol: as §1

Compound in assay [1]: O=c1[nH]cc(F)c(=O)[nH]1 [5-Fluorouracil] + CCNC(=O)c1noc(-c2cc(C(C)C)c(O)cc2O)c1-c1ccc(CN2CCOCC2)cc1 [Luminespib] (partner 0.01 µM)
In short, it runs like this:
as §1

Compound in assay [2]: O=c1[nH]cc(F)c(=O)[nH]1 [5-Fluorouracil] + Nc1ncn([C@H]2C[C@H](O)[C@@H](CO)O2)c(=O)n1 [Decitabine] (partner 2 µM)
A digest of the protocol:
as §1

On to UMC-11, for which the relative viability with Sulindac + Pictilisib (first compound 0.08 µM) turned out to be 1.18; in the assay with Sulindac + Pictilisib (first compound 0.253 µM), 0.816; in the assay with Sulindac + Pictilisib (first compound 0.8 µM), 0.704; in the assay with Sulindac + Pictilisib (first compound 2.53 µM) it was 0.667; with Sulindac + Pictilisib (first compound 8 µM) it was 0.793; in the assay with Sulindac + Decitabine (first compound 0.08 µM) it was 0.595. The relative viability amounted to 0.627 with Sulindac + Decitabine (first compound 0.253 µM); 0.535 in the assay with Sulindac + Decitabine (first compound 0.8 µM); 0.584 with Sulindac + Decitabine (first compound 2.53 µM); 0.65 in the assay with Sulindac + Decitabine (first compound 8 µM); 0.954 in assay [1] (first compound 0.02 µM); 0.68 in assay [1] (first compound 0.2 µM). The relative viability in assay [1] (first compound 0.6325 µM) worked out at 0.516; in assay [1] (first compound 2 µM) it was 0.396; in assay [2] (first compound 0.02 µM), 0.593; in assay [2] (first compound 0.2 µM), 0.565; in assay [2] (first compound 0.6325 µM) it was 0.497.

Values taken from the supplement of paper PMC10307832.
